Test results from patent US8883763B2 (Universite Joseph Fourier, priority 2010, dated 2014).

Legend:
[1] = system: bovine brain tubulin; assay: In vitro tubulin polymerization test (turbidimetry at 350 nm); format: biochemical; details: molecules at 50 μM, calculated at t=3000 s, DMSO control = 100%
Experimental: Tubulin was purified from bovine brain using the polymerization-depolymerization process described by (Castoldi M and Popov A V. Protein Expr Purif. 2003, 32(1): pp 83-8).
The in vitro tubulin polymerization tests (at 50 μM) were carried out in the presence of GTP 1 mM in BRB80 buffer (80 mM K-PIPES pH 6.8, 1 mM MgCl2, 1 mM EGTA) at 37° C. The tests were carried out in 96-microwell plates (half-wells) (Costar plates, Corning #3695), in triplicate with a final volume of 70 μl. Tubulin assembly was carried out in the presence of compound 6 or its analogues (all used at a concentration of 50 μM) and was monitored by turbidimetry measurement at 350 nm using a spectrophotometer (Spectramax More, Molecular Devices).
Measurement of the effect of a molecule on polymerization was calculated at t=3000 s taking the value of the control at the same time as being equal to 100%.

[2] = target: T1, PP1α (PP1CA) (Oryctolagus cuniculus, UniProt P62139); assay: Protein phosphatase test (PP1 activity, DiFMUP fluorescent substrate); format: biochemical; details: PP1CA at 80 mU, fluorescent substrate (50 μM), molecules from 50 μM to 50 nM; read-out: PP1 Inhibition IC50
T1 construct: purchased New England Biolabs P0754
Experimental: FIG. 13 presents the graph showing the inhibition of the PP1Cα activity by compound 6 in vitro. PP1Cα (New England Biolabs, 30 mU/well) was incubated in the presence of compound 6 at different concentrations and a fluorescent substrate, diFMUP.
Determination of the 1050 was carried out with PP1CA at 80 mU in the presence of a fluorescent substrate
(50 μM) and different concentrations of molecules from 50 μM to 50 nM.
For the activity tests, PP1α (New England Biolabs # P0754) was used at a final concentration of 30 mU or 80 mU for the screening of all the analogues. 6,8-difluoro-4-methylumbelliferyl phosphate (DiFMUP, Invitrogen # D6567) was used as fluorescent substrate at a concentration of […]. All the tests were carried out in a final volume of 100 μl, at 37° C. in 96-microwell plates (Greiner #655096).
Compound 6, combretastatin A4 (CA-4) as well as all the analogues were diluted in 50 μl of PP1 buffer (100 mM Tris-HCl, pH 7.5, 4 mM DTT, 0.2 mM EDTA, 0.5 mM MnCl2) from 50 μM to 50 nM. Corresponding quantities of DMSO were added to control wells. PP1α (30 or 80 mU in 30 μl of PP1 buffer) was added to each well. After incubating for 15 minutes at AT, the substrate was added (in 20 μl of PP1 buffer). After incubating for 20 minutes at 37° C., the fluorescence was measured in a plate fluorometer at 355-460 nm in order to assay the phosphatase activity. The test was carried out three times in duplicate for each condition.

[3] = system: HMEC cells; assay: Proliferation of HMEC cells (GI50); format: cell-based; details: Homo sapiens, 120 h, 50 μM to 1 nM for 5 days
Experimental: The HMECs were seeded at 10% confluence and incubated with the molecules at different concentrations (from 50 μM to 1 nM) for 5 days. The GI50 (50% Growth Inhibition) defines the concentration inducing a 50% reduction in proliferation with respect to the control.

[4] = system: HeLa cells; assay: Indirect immunofluorescence: effect on HeLa cells (mitotic arrest, microtubule depolymerization); format: cell-based, human; parameters: key to Effect on Hela at 25 μM / Effect on Hela at 100 μM / Effect on Hela at 50 and 100 μM / Effect on Hela at 50 μM: —: −: no activity on the cells at 25 μM (if there is an effect at high concentrations, this is specified in the table).; *: weak activity (MA and/or slight depolymerization of the MTs and/or slight inhibition of proliferation),; **: average activity (MA and/or moderate depolymerization of the MTs and/or moderate inhibition of proliferation),; ***: strong activity (MA and/or pronounced depolymerization of the MTs and/or pronounced inhibition of proliferation),; ****: very strong activity (MA and/or very pronounced depolymerization of the MTs and/or strong inhibition of proliferation); details: 25 μM, 24 hours; mitotic index and/or depolymerization of the MTs
Experimental: The cells were cultured on slides in 24-well plates and incubated for 24 hours with molecule 6 at different concentrations from 1 to 10 μM.
Corresponding quantities of DMSO were added to the culture medium in the control wells.
The cells were fixed in a solution of PBS with 4% paraformaldehyde (PFA) and 0.1% glutaraldehyde (GA), for 15 minutes and centrifuged at 300 g for the last 10 minutes of the fixing. The slides were rinsed in PBS and the free aldehyde groups were reduced by two successive 5-minute incubations in PBS containing 1 mg/ml of NaBH4.
After one washing with PBS then another with PBST (PBS with 0.5% triton-X-100), the cells are incubated for 30 minutes at ambient temperature with anti α-tubulin monoclonal antibody solution (DM1A clone, Sigma # T6199) diluted to 1:200 in PBST. After 3 10-minute washings with PBST, the cells are incubated for 30 minutes at ambient temperature in a solution of goat anti-mouse polyclonal antibodies coupled with Alexa 488 (1:1000, Molecular Probes # A-11029) and phalloidin coupled with Texas red to label the actin (1:2000, Molecular Probes # T7471), in PBST also containing Hoechst 33258 (1 μg/ml) for labelling the DNA. After 3 10-minute washings in PBST, the slides are mounted on plates in Fluorsave™ mounting medium (Calbiochem #345789) and are observed and analyzed using an Axiovert 200M inverted fluorescence microscope (Zeiss®). The images are produced with a Plan-Apochromat 63× oil objective (Zeiss®) by means of a Coolsnap HQ camera (Roper Scientifics®) and with Metamorph acquisition software (Universal Imaging™ Corporation).
In order to evaluate the effect of the analogues of compound 6 on PHFs and HeLa cells, the immunofluorescence technique described above was used and adapted to a 96-well dish format. The cells were seeded in glass-bottomed 96-well dishes and incubated for 24 hours in the presence of different concentrations of molecules from 100 μM to 50 nM. And in the same way as described above, the cells were fixed and immunolabelled. Analysis of the phenotypes as well as counting the mitotic cells were carried out with the same microscope but using a ×40 objective (Olympus). The molecules were compared with each other with respect to the mitotic arrest induced on PHFs and HeLa cells at 25 and 0.3 μM.
The mitotic index and/or the depolymerization of the MTs were evaluated at 25 μM.

T1 sequence (P62139 whole entry): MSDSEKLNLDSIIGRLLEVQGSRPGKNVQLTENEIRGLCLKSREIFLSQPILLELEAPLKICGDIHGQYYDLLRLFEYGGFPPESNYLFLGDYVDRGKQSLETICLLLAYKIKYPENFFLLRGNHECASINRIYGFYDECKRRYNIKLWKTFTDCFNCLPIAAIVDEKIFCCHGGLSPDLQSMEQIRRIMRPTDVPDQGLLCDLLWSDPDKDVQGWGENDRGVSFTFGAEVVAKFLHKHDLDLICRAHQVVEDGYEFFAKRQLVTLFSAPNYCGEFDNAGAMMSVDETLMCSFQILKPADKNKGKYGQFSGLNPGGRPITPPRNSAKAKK

SMILES | IC50 [2] | Tubulin polymerization inhibition [1] | GI50 [3] | Effect on Hela at 25 μM [4]
COc1ccc2c([N+](=O)[O-])c(-c3ccc(C#CC(C)(C)C)cc3)[nH]c(=O)c2c1 [Compound 60, 3-(4-(3,3-dimethylbut-1-ynyl)phenyl)-7-methoxy-4-nitroisoquinolin-1(2H)-one] | ≤ 9 µM | — ((−) signifies that the molecule induces little or no tubulin assembly inhibition in vitro: 0+ or − −5% of the DMSO control.) | 1 to 25 µM | ***
COc1ccc(-c2c([N+](=O)[O-])c3ccc(OC)cc3c(=O)n2N)cc1 [Compound 62, 2-Amino-7-methoxy-3-(4-methoxyphenyl)-4-nitroisoquinoline-1(2H)-one] | > 50 µM | — ((−) signifies that the molecule induces little or no tubulin assembly inhibition in vitro: 0+ or − −5% of the DMSO control.) | 1 to 25 µM | ***
COc1ccc(-c2c([N+](=O)[O-])c3ccc(OC)cc3c(=O)n2C)cc1 [Compound 66, 7-Methoxy-3-(4-methoxyphenyl)-2-methyl-4-nitroisoquinoline-1(2H)-one] | ≤ 9 µM | + ((+) signifies that the molecule induces tubulin assembly inhibition in vitro comprised between 6 and 25% of the DMSO control.) | 1 to 25 µM | *
COc1ccc(-c2c([N+](=O)[O-])c3ccc(OC)cc3c(=O)n2CCO)cc1 [Compound 68, 2-(2-Hydroxyethyl)-7-methoxy-3-(4-methoxyphenyl)-4-nitroisoquinoline-1(2H)-one] | > 50 µM | — ((−) signifies that the molecule induces little or no tubulin assembly inhibition in vitro: 0+ or − −5% of the DMSO control.) | 25 to 50 µM | —
COc1ccc(COc2nc(-c3ccc(OC)cc3)c(C(F)(F)F)c3ccc(OC)cc23)cc1 [Compound 70, 7-Methoxy-1-(4-methoxybenzyloxy)-3-(4-methoxyphenyl)-4-(trifluoromethyl)isoquinoline] | 10 to 24 µM | + ((+) signifies that the molecule induces tubulin assembly inhibition in vitro comprised between 6 and 25% of the DMSO control.) | 25 to 50 µM | —
COc1ccc2c([N+](=O)[O-])c(-c3ccc(O)cc3)[nH]c(=O)c2c1 [Compound 72, 3-(4-hydroxyphenyl)-7-methoxy-4-nitroisoquinolin-1(2H)-one] | 10 to 24 µM | ++ ((++) signifies that the molecule induces tubulin assembly inhibition in vitro comprised between 26 and 50% of the DMSO control.) | 0.1 to 1 µM | ****
COc1ccc2c([N+](=O)[O-])c(-c3ccc(OC(=O)OC(C)(C)C)cc3)[nH]c(=O)c2c1 [Compound 73, tert-butyl 4-(7-methoxy-4-nitro-1-oxo-1,2-dihydroisoquinolin-3-yl)phenyl carbonate] | 10 to 24 µM | — ((−) signifies that the molecule induces little or no tubulin assembly inhibition in vitro: 0+ or − −5% of the DMSO control.) | 1 to 25 µM | ***

More lines, main results first:

IC50 [2] | SMILES | Tubulin polymerization inhibition [1] | GI50 [3] | Effect on Hela at 25 μM [4]
> 50 µM | COc1ccc(-c2cc3ccc(OC)cc3c(=O)n2N)cc1 [Compound 61, 2-Amino-7-methoxy-3-(4-methoxyphenyl)isoquinoline-1(2H)-one] | — ((−) signifies that the molecule induces little or no tubulin assembly inhibition in vitro: 0+ or − −5% of the DMSO control.) | > 50 µM | —
10 to 24 µM | COc1ccc(-c2cc3ccc(OC)cc3c(OC)n2)cc1 [Compound 64, 1,7-Dimethoxy-3-(4-methoxyphenyl)isoquinoline] | — ((−) signifies that the molecule induces little or no tubulin assembly inhibition in vitro: 0+ or − −5% of the DMSO control.) | > 50 µM | —
≥ 50 µM | COc1ccc(-c2cc3ccc(OC)cc3c(=O)n2C)cc1 [Compound 65, 7-Methoxy-3-(4-methoxyphenyl)-2-methylisoquinoline-1(2H)-one] | + ((+) signifies that the molecule induces tubulin assembly inhibition in vitro comprised between 6 and 25% of the DMSO control.) | 1 to 25 µM | *
25 to 50 µM | COc1ccc(-c2cc3ccc(OC)cc3c(=O)n2CCO)cc1 [Compound 67, 2-(2-Hydroxyethyl)-7-methoxy-3-(4-methoxyphenyl)isoquinoline-1(2H)-one] | — ((−) signifies that the molecule induces little or no tubulin assembly inhibition in vitro: 0+ or − −5% of the DMSO control.) | 25 to 50 µM | —
25 to 50 µM | COc1ccc(COc2nc(-c3ccc(OC)cc3)c(I)c3ccc(OC)cc23)cc1 [Compound 69, 4-Iodo-7-methoxy-1-(4-methoxybenzyloxy)-3-(4-methoxyphenyl)isoquinoline] | + ((+) signifies that the molecule induces tubulin assembly inhibition in vitro comprised between 6 and 25% of the DMSO control.) | 25 to 50 µM | —
> 50 µM | COc1ccc(-c2nc(N)c3cc(OC)ccc3c2[N+](=O)[O-])cc1 [Compound 71, 1-Amino-7-methoxy-3-(4-methoxyphenyl)-4-nitroisoquinoline] | + ((+) signifies that the molecule induces tubulin assembly inhibition in vitro comprised between 6 and 25% of the DMSO control.) | 25 to 50 µM | —
